Results reported in patent US11371055B2, “Herbicide resistance genes” (CORTEVA AGRISCIENCE LLC, priority 2005, dated 2022).

Assays:
[1] = test system: T1 AAD-12 (v1) tobacco; test: Elevated 2,4-D DMA rates in greenhouse tobacco, AAD-12; assay type: in vivo, Nicotiana tabacum
Text: (§1) T1 AAD-12 (v1) plants from an event segregating 3R:1S when selected with 560 g ai/ha Liberty using the same protocol as previously described. T1 AAD-1 (v3) seed was also planted for transformed tobacco controls (see PCT/US2005/014737). Untransformed KY160 was served as the sensitive control. Plants were sprayed using a track sprayer set to 187 L/ha at 140, 560, 2240, 8960, and 35840 g ae/ha 2,4-D DMA and rated 3 and 14 DAT.

[2] = test system: AAD-12 transformed T0 corn events; test: Postemergence herbicide tolerance in T0 corn; assay type: in vivo, Zea mays; conditions: 2240 g ae/ha 2,4-D
Method: Four T0 events were allowed to acclimate in the greenhouse and were grown until 2-4 new, normal looking leaves had emerged from the whorl (i.e., plants had transitioned from tissue culture to greenhouse growing conditions). Plants were grown at 27° C. under 16 hour light:8 hour dark conditions in the greenhouse. Plants were then treated with commercial formulations of either Pursuit® (imazethapyr) or 2,4-D Amine 4. […] Herbicide applications were made with a track sprayer at a spray volume of 187 L/ha, 50-cm spray height. Plants were sprayed with either a lethal dose of imazethapyr (70 g ae/ha) or a rate of 2,4-D DMA salt capable of significant injury to untransformed corn lines (2240 g ac/ha). A lethal dose is defined as the rate that causes >95% injury to the Hi-II inbred. Hi-II is the genetic background of the transformants of the present invention.

[3] = test system: PHL tobacco suspension co-cultivated with Agrobacterium carrying pDAB724; test: Tobacco cell transformation with AAD-12 (v1) and 2,4-D selection; assay type: cell-based
Method: For tobacco transformation experiment, there were 11 treatments altogether: a control set plated on LS-BY2C+dichlorprop medium, and 10 sets of LSBY2C+dichlorprop+2,4-D at varying concentration levels (1, 2, 3, 5, 8, 10, 12, 15, 18, 20 mg/L). There were four replications per treatment. The plasmid DNA vector used was pDAB724, and the vector used for transformation was EHA101S strain of Agrobacterium tumefaciens. Four ml of PHL suspension at 0.6 OD^660 were mixed with 100 ul of Agrobacterium (either EHA101 or LBA4404 strains) suspension at 1.0 OD^660 in a sterile Petri plate and were mixed thoroughly and co-cultivated together in a non-shake condition at a dark growth chamber for 3 days at 25° C. After the co-cultivation period 1.5 ml of the Agro-tobacco suspension mixture was plated to the 11 set of plates above. […] Again, there were four replicates per treatment, as well as a positive and negative control. All media contain 500 mg/L Carbenicillin (C) to control to contain Agrobacterium growth in the selection media.
The plasmid used in these experiments is pDAB724 and it has PAT selectable marker as well. So, control transformation experiments were initiated using R-dichlorprop habituated PHL in the presence of 10 mg/L bialophos following the standard protocol described above. […]

[4] = test system: KY160 control tobacco; test: Elevated 2,4-D DMA rates in greenhouse tobacco, sensitive control; assay type: in vivo, Nicotiana tabacum
Text: as §1

[5] = test system: AAD-12 (v1) transformed T1 corn plants; test: Brace root injury of T1 corn after 2,4-D DMA; assay type: in vivo, Zea mays; conditions: 2240 g ae/ha 2,4-D DMA, V3-V4 stage, 14DAT
Text: T1 AAD-12 (v1) seed were planted into 3-inch pots containing Metro Mix media and at 2 leaf stage were sprayed with 70 g ae/ha imazethapyr to eliminate nulls. Surviving plants were transplanted to 1-gallon pots containing Metro Mix media and placed in the same growth conditions as before. At V3-V4 stage the plants were sprayed in the track sprayer set to 187 L/ha at either 560 or 2240 g ac/ha 2,4-D DMA. Plants were graded at 3 and 14 DAT and compared to 5XH751×Hi II control plants. A grading scale of 0-10 (no injury to extreme auxin injury) was developed to distinguish brace root injury. Brace Root grades were taken on 14DAT to show 2,4-D tolerance. 2,4-D causes brace root malformation, and is a consistent indicator of auxinic herbicide injury in corn. […] Event “pDAB4101(0)001.001” was apparently unstable; however, the other two events were robustly tolerant to 2,4-D and 2,4-D+imazethapyr or 2,-4D+glyphosate (see Table 16).

[6] = test system: T1 AAD-12 (v1) rice lines pDAB4101(20)003 and pDAB4101(27)002; test: 2,4-D DMA tolerance in T1 rice; assay type: in vivo, Oryza sativa
Text: The following T1 AAD-12 (v1) single segregating locus lines were planted into 3-inch pots containing Metro Mix media: pDAB4101(20)003 and pDAB4101(27)002. At 2-3 leaf stage were sprayed with 140 g ae/ha imazethapyr. Nulls were eliminated and individuals were sprayed at V3-V4 stage in the track sprayer set to 187 L/ha at 1120, 2240 or 4480 g ac/ha 2,4-D DMA (2×, 4×, and 8× typical commercial use rates, respectively). Plants were graded at 7 and 14 DAT and compared to untransformed commercial rice cultivar. ‘Lamont,’ as negative control plants.

[7] = test system: Untransformed Control corn; test: Herbicide tolerance of untransformed control corn in the F1 stack test; assay type: in vivo, Zea mays; conditions: 1120 g ae/ha 2,4-D DMA
Text: AAD-12 (v1) (pDAB4101) and elite Roundup Ready inbred (BE1146RR) were reciprocally crossed and F1 seed was collected. The seed from two F1 lines were planted and treated with 70 g ae/ha imazethapyr at the V2 stage to eliminate nulls. To the surviving plants, reps were separated and either treated with 1120 g ae/ha 2,4-D DMA+70 g ae/ha imazethapyr (to confirm presence of AHAS gene) or 1120 g ae/ha 2,4-D DMA+1680 g ae/ha glyphosate (to confirm the presence of the Round Up Ready gene) in a track sprayer calibrated to 187 L/ha. Plants were graded 3 and 16 DAT.

In the case of `O=C(O)COc1ccc(Cl)cc1Cl` [2,4-D, 2,4-dichlorophenoxyacetic acid], the “Average % injury 14 DAT” value ([1]; 2240 g ae/ha 2,4-D) is reported as 0%, the “Average % injury 14 DAT” value ([1]; 8960 g ae/ha 2,4-D) is reported as 0% and the “Average % injury 14 DAT” value ([1]; 35840 g ae/ha 2,4-D) is reported as 4%. For the same compound, the “% injury 14 DAT” value ([2]; T0 corn event 4101(0)003.001) was 0%, the “% injury 14 DAT” value ([2]; T0 corn event 4101(0)003.003) was 0% and the “% injury 14 DAT” value ([2]; T0 corn event 4101(0)005.001) was 0%. The “2,4-D concentration beyond which bulked AAD-12 (v1) callus did not grow” value ([3]; 20, 40, 60, 80, 100, and 120 mg/L 2,4-D tested) was at most 20 mg/L, the “sub-lethal concentration of 2,4-D (above it lethal to the non-transformed cells)” value ([3]; LS-BY2C+dichlorprop medium) was 10 mg/L and the “Average % injury 14 DAT” value ([4]; 2240 g ae/ha 2,4-D) was 95%. The “Average % injury 14 DAT” value ([4]; 8960 g ae/ha 2,4-D) was 99% and the “Average % injury 14 DAT” value ([4]; 35840 g ae/ha 2,4-D) was 100%.
For `CNC.O=C(O)COc1ccc(Cl)cc1Cl` [2,4-D DMA], the “Average Brace Root Injury (0-10 Scale)” value ([5]; event AAD-12 (v1) pDAB4101(0)005.001) was 0, the “Average Brace Root Injury (0-10 Scale)” value ([5]; event AAD-12 (v1) pDAB41011(0)003.003) was 1 and the “Average Brace Root Injury (0-10 Scale)” value ([5]; event AAD-12 (v1)pDAB4101(0)001.001) was 8. The “Average % injury 14 DAT” value ([6]; T1 pDAB4101(20)003, 1120 g ae/ha) was 10%, the “Average % injury 14 DAT” value ([6]; T1 pDAB4101(20)003, 2240 g ae/ha) was 15% and the “Average % injury 14 DAT” value ([6]; T1 pDAB4101(20)003, 4480 g ae/ha) was 23%. The “Average % injury 14 DAT” value ([6]; T1 pDAB4101(27)002, 1120 g ae/ha) was 10%, the “Average % injury 14 DAT” value ([6]; T1 pDAB4101(27)002, 2240 g ae/ha) was 30% and the “Average % injury 14 DAT” value ([6]; T1 pDAB4101(27)002, 4480 g ae/ha) was 40%. The “Average % Injury 16DAT” value [7] was 21%.
